According to patent US10808005B2, “Ligand for orphan nuclear receptor Nur77 and uses thereof” (IXMEDICINE (XIAMEN) BIOLOGICAL TECHNOLOGY COMPANY LIMITED, priority 2016, dated 2020):

Tests used:
[1] = tested on: IκBα and phosphorylated IKKα/β; experiment: Immunoblot of IκBα and phosphorylated IKKα/β in TNFα-treated HepG2 cells; type: cell-based; conditions: TNFα 20 ng/mL 30 minutes
Text: IκBα and phosphorylated IKKα/β in the cells were then detected by WB.
In addition, HepG2 cells were also applied in the experiment. […] IκBα in the cells was then detected by WB.

[2] = Acute toxicity model mice, histopathology; type: in vivo
Text: The tissue morphologies of the heart, liver, small intestine, white fat and kidney were observed by Histopathological method.

IκBα [3] = experiment: Immunoblot of IκBα in MEF cells; type: cell-based; conditions: MEF cells expressing Nur77
Text: (§1) The above results were also confirmed by using MEF cells and Nur77−/−MEF cells (i.e., MEF cells not expressing Nur77). […] Subsequently, IκBα in the cells was detected by WB.

tumors [4] = experiment: Tumor inhibition in wild type PYVT mice; type: in vivo; conditions: YXY101 5 mg/kg or XS0284 10 mg/kg intragastric, two weeks
mTOR signaling pathway = experiment: Immunoblot of p-mTOR, p-P70S6K, p-S6 in TNFα-treated starved MDA-MB-231 cells; type: cell-based
breast cancer = experiment: PYVT mice under LFD or HFD feeding, intragastric administration; type: in vivo, WT mice and PYVT mice
Text: The above conclusions can be reflected in the size of tumor tissue and the change of body weight of mice.

tumors [5] = experiment: Tumor inhibition in Nur77-knocked-out PYVT mice; type: in vivo, Nur77-knocked-out type; conditions: Nur77-deficient; YXY101 5 mg/kg or XS0284 10 mg/kg intragastric, two weeks
[6] = tested on: BT474, ZR-75-1, BT549, HCC1937, HS578T, MCF-7, and T47D; experiment: Inhibition rate on seven breast cancer cells; type: cell-based; conditions: various breast cancer cells, FIG. 11C
IκBα [7] = experiment: Immunoblot of IκBα in Nur77−/−MEF cells; type: cell-based
Text: as §1

[8] = single intragastric injection 200 mg/kg
[9] = single intraperitoneal injection 20 mg/kg

Structure (SMILES): Cc1c(O)c(O)cc2c1C(S(=O)(=O)[O-])C=C1[C@@]2(C)CC[C@@]2(C)[C@@H]3C[C@](C)(C(=O)O)CC[C@]3(C)CC[C@]12C.[Na+] (stereo partly drawn) [XS0284]
- TNFα-induced degradation of IκBα [1]: capable of inhibiting TNFα-induced degradation of IκBα
- toxic effect compared with YXY101 ([2]; intragastric injection group): weaker toxic effect on the liver and small intestine than YXY101
- toxicity compared with YXY101 ([2]; intraperitoneal injection group): less toxicity to kidney and adipose than YXY101
- acute toxicity to animals compared with YXY101 ([2]; overall): less acute toxicity to animals than YXY101
- adipose tissue morphology [2, 8]: the adipose tissue cells had clear boundaries, and were neatly arranged, and the fiber breakage was reduced
- heart tissue morphology [2, 8]: relatively clear boundaries, the myocardial fibers were arranged relatively neatly and had obvious boundaries
- liver tissue morphology [2, 8]: the hepatocytes in the liver tissue had obvious boundaries and clear structure
- small intestine tissue morphology [2, 8]: the intestinal tissue had clear boundaries, the cells were plump, the intestinal villi were neatly arranged and had obvious boundaries
- adipose tissue morphology [2, 9]: the adipose tissue cells had clear boundaries and were arranged neatly, the fiber breakage was reduced
- heart tissue morphology [2, 9]: relatively clear boundaries, the myocardial fibers were relatively neatly arranged and had obvious boundaries
- kidney tissue morphology [2, 9]: the kidney tissue had clear glomerular boundaries, the cells were full, and there was a small amount of inflammatory cell infiltration
- liver tissue morphology [2, 9]: the hepatocytes in the liver tissue had obvious boundaries and clear structure
- TNFα-induced degradation of IκBα (IκBα [3]): able to inhibit TNFα-induced degradation of IκBα
- tumor inhibition (tumor tissue size) (tumors [4]): effective in inhibiting tumors in wild-type mice
- inhibitory effect on P-mTOR, P-p70S6K and P—S6 (mTOR signaling pathway): strong inhibitory effect
- inhibition effect on breast cancer compared with YXY101 (breast cancer; high-fat feeding conditions): stronger than that of YXY101
- inhibitory effect on breast cancer compared with YXY101 (breast cancer; low-fat feeding conditions): close to that of YXY101
- development of breast cancer (breast cancer; low-fat or high-fat feeding conditions): can significantly inhibit the development of breast cancer
- tumor inhibition (tumor tissue size) (tumors [5]): neither of the two compounds could exert an inhibitory effect
- inhibitory effects on proliferation compared with YXY101 [6]: close or even stronger than that of YXY101
- TNFα-induced degradation of IκBα (IκBα [7]): lost the ability to inhibit IκBα degradation
